# Data from PMC9154192 (PLoS Biology, 2022).
# Where two headings read alike, the source gives them in different places.
# Assay type: in vivo, SD rats
# Conditions: for Adrenal gland: Vacuolation, cortical, diffuse, Grade 1, no. of animals / Adrenal gland: Vacuolation, cortical, diffuse, Grade 2, no. of animals / Epididymis: Infiltrate, inflammatory cell, interstitum, Grade 1, no. of animals / Eye: Dysplasia, retina, focal, Grade 1, no. of animals / Harderian gland: Infiltrate, inflammatory cell, focal, Grade 1, no. of animals / Kidney: Basophilia, tubule, cortex, Grade 1, no. of animals / Kidney: Cast, hyaline, cortex, Grade 1, no. of animals / Kidney: Hydronephrosis, unilateral, Grade 3, no. of animals / Kidney: Infiltrate, inflammatory cell, interstitium, Grade 1, no. of animals / Kidney: Infiltrate, inflammatory cell, interstitium, Grade 2, no. of animals / Kidney: Mineralization, cortex, Grade 1, no. of animals / Kidney: Mineralization, corticomedullary junction, Grade 1, no. of animals / Kidney: Mineralization, medulla, Grade 1, no. of animals / Liver: Extramedullary hematopoiesis, Grade 1, no. of animals / Liver: Fatty change, sporadic/periportal, Grade 1, no. of animals / Liver: Fatty change, sporadic/periportal, Grade 2, no. of animals / Liver: Infiltrate, mononuclear cell, focal, Grade 1, no. of animals / Liver: Infiltrate, mononuclear cell, focal, Grade 2, no. of animals / Lung including bronchi: Alveolar macrophage aggregation, focal, Grade 1, no. of animals / Lung including bronchi: Infiltrate, mononuclear cell, alveolar, focal, Grade 1, no. of animals / Pituitary gland: Cyst, pars nervosa, Presence, no. of animals / Prostate: Infiltrate, inflammatory cell, interstitium, Grade 1, no. of animals / Salivary gland (parotid): Focus, hypertrophic, basophilic, focal, Grade 1, no. of animals / Spleen: Pigmentation, Grade 1, no. of animals / Submandibular lymph node: Increased, plasma cell, Grade 2, no. of animals / Thyroid gland: Ectopic thymus, Presence, no. of animals / Thyroid gland: Ultimobranchial cyst, Presence, no. of animals: female
# Description: A subchronic toxicity study was performed for PP2S. Female and male rats were divided into a control group (0 mg/kg/day, n = 15), a low-dose group (167 mg/kg/day, n = 10), a medium-dose group (500 mg/kg/day, n = 10), and a high-dose group (1,500 mg/kg/day, n = 15), respectively. Thus, there were a total of 8 groups. The drug was administered by oral gavage at 10 mL/kg body weight daily for 4 weeks. Five animals each in the control and high-dose groups continued their treatments for 2 more weeks. Clinical symptoms were observed, and body weight was measured during the test period for a total of 6 weeks; 0.5% methyl cellulose 1,500 cP (Sigma, USA) in water for injection (JW Pharmaceutical, Korea) was used as a vehicle. Control animals were treated with only the same volume of the vehicle.
# Histopathological examination was performed while performing a 4-week repeated oral toxicity study for PP2S. Organs and tissues from all animals subjected to autopsy were removed and fixed in 10% neutral buffered formalin. Among them, testes, eyeballs and optic nerve were fixed in Davidson's fixative and then in 10% neutral buffered formalin. For organs/tissues subjected to histopathological examination, specimens were prepared according to the histopathological specimen preparation SOP. For histopathological examination, organs and tissues of all subjects in the control group and the high-dose group, and macroscopically observed subjects in the low-dose group were examined. […] In addition, all other changes observed in histopathological examination were judged to be spontaneous or accidental. Those not specifically observed for all groups by organ were marked with a 'dash' symbol. Grade 1, minimal; Grade 2, slight; Grade 3, moderate; Grade 4, severe.
# [1] = all groups (167, 500, 1,500 mg/kg; male, female; dosing and recovery period)
# [2] = G2 167 mg/kg, dosing period, n=10
# [3] = G3 500 mg/kg, dosing period, n=10
# [4] = G4 1,500 mg/kg, dosing period, n=10
# [5] = G4 1,500 mg/kg, recovery period, n=5
compound,measurement,setting,value
"CCCCOc1ccc2cc(CN3C(=O)CC[C@H]3C(=O)OC)c3cc(OC)c(OC)cc3c2c1 [PP2S, Methyl (S)-1-((3-butoxy-6,7-dimethoxyphenanthren-9-yl)methyl)-5-oxopyrrolidine-2-carboxylate]",histopathological change due to administration,"all administration groups, 4-week repeated oral toxicity study",no change was observed
same,Histopathological findings: Brain,[1],-
same,Histopathological findings: Cecum,[1],-
same,Histopathological findings: Colon,[1],-
same,Histopathological findings: Duodenum,[1],-
same,Histopathological findings: Exophagus,[1],-
same,Histopathological findings: Femur including bone marrow,[1],-
same,Histopathological findings: Heart,[1],-
same,Histopathological findings: Ileum,[1],-
same,Histopathological findings: Jejunum,[1],-
same,Histopathological findings: Mammary gland (inguinal),[1],-
same,Histopathological findings: Mesenteric lymph node,[1],-
same,Histopathological findings: Optic nerve,[1],-
same,Histopathological findings: Pancreas,[1],-
same,Histopathological findings: Parathyroid gland,[1],-
same,Histopathological findings: Rectum,[1],-
same,Histopathological findings: Salivary gland (sublingual),[1],-
same,Histopathological findings: Salivary gland (submandibular),[1],-
same,Histopathological findings: Seminal vesicle,[1],-
same,Histopathological findings: Skin (inguinal),[1],-
same,Histopathological findings: Spinal cord (thoracic),[1],-
same,Histopathological findings: Sternum including bone marrow,[1],-
same,Histopathological findings: Stomach,[1],-
same,Histopathological findings: Testis,[1],-
same,Histopathological findings: Thymus,[1],-
same,Histopathological findings: Tongue,[1],-
same,Histopathological findings: Trachea,[1],-
same,Histopathological findings: Urinary bladder,[1],-
same,Histopathological findings: Uterus,[1],-
same,Histopathological findings: Vagina,[1],-
same,"Adrenal gland: Vacuolation, cortical, diffuse, Grade 1, no. of animals",[2],0
same,"Adrenal gland: Vacuolation, cortical, diffuse, Grade 2, no. of animals",[2],0
same,"Epididymis: Infiltrate, inflammatory cell, interstitum, Grade 1, no. of animals",[2],0
same,"Eye: Dysplasia, retina, focal, Grade 1, no. of animals",[2],0
same,"Harderian gland: Infiltrate, inflammatory cell, focal, Grade 1, no. of animals",[2],0
same,"Kidney: Basophilia, tubule, cortex, Grade 1, no. of animals",[2],0
same,"Kidney: Cast, hyaline, cortex, Grade 1, no. of animals",[2],0
same,"Kidney: Hydronephrosis, unilateral, Grade 3, no. of animals",[2],0
same,"Kidney: Infiltrate, inflammatory cell, interstitium, Grade 1, no. of animals",[2],0
same,"Kidney: Infiltrate, inflammatory cell, interstitium, Grade 2, no. of animals",[2],0
same,"Kidney: Mineralization, cortex, Grade 1, no. of animals",[2],0
same,"Kidney: Mineralization, corticomedullary junction, Grade 1, no. of animals",[2],0
same,"Kidney: Mineralization, medulla, Grade 1, no. of animals",[2],0
same,"Liver: Extramedullary hematopoiesis, Grade 1, no. of animals",[2],0
same,"Liver: Fatty change, sporadic/periportal, Grade 1, no. of animals",[2],0
same,"Liver: Fatty change, sporadic/periportal, Grade 2, no. of animals",[2],0
same,"Liver: Infiltrate, mononuclear cell, focal, Grade 1, no. of animals",[2],0
same,"Liver: Infiltrate, mononuclear cell, focal, Grade 2, no. of animals",[2],0
same,"Lung including bronchi: Alveolar macrophage aggregation, focal, Grade 1, no. of animals",[2],0
same,"Lung including bronchi: Infiltrate, mononuclear cell, alveolar, focal, Grade 1, no. of animals",[2],0
same,"Pituitary gland: Cyst, pars nervosa, Presence, no. of animals",[2],0
same,"Prostate: Infiltrate, inflammatory cell, interstitium, Grade 1, no. of animals",[2],0
same,"Salivary gland (parotid): Focus, hypertrophic, basophilic, focal, Grade 1, no. of animals",[2],0
same,"Spleen: Pigmentation, Grade 1, no. of animals",[2],0
same,"Submandibular lymph node: Increased, plasma cell, Grade 2, no. of animals",[2],0
same,"Thyroid gland: Ectopic thymus, Presence, no. of animals",[2],0
same,"Thyroid gland: Ultimobranchial cyst, Presence, no. of animals",[2],0
same,"Adrenal gland: Vacuolation, cortical, diffuse, Grade 1, no. of animals",[3],0
same,"Adrenal gland: Vacuolation, cortical, diffuse, Grade 2, no. of animals",[3],0
same,"Epididymis: Infiltrate, inflammatory cell, interstitum, Grade 1, no. of animals",[3],0
same,"Eye: Dysplasia, retina, focal, Grade 1, no. of animals",[3],0
same,"Harderian gland: Infiltrate, inflammatory cell, focal, Grade 1, no. of animals",[3],0
same,"Kidney: Basophilia, tubule, cortex, Grade 1, no. of animals",[3],0
same,"Kidney: Cast, hyaline, cortex, Grade 1, no. of animals",[3],0
same,"Kidney: Hydronephrosis, unilateral, Grade 3, no. of animals",[3],0
same,"Kidney: Infiltrate, inflammatory cell, interstitium, Grade 1, no. of animals",[3],0
same,"Kidney: Infiltrate, inflammatory cell, interstitium, Grade 2, no. of animals",[3],0
same,"Kidney: Mineralization, cortex, Grade 1, no. of animals",[3],0
same,"Kidney: Mineralization, corticomedullary junction, Grade 1, no. of animals",[3],0
same,"Kidney: Mineralization, medulla, Grade 1, no. of animals",[3],0
same,"Liver: Extramedullary hematopoiesis, Grade 1, no. of animals",[3],0
same,"Liver: Fatty change, sporadic/periportal, Grade 1, no. of animals",[3],0
same,"Liver: Fatty change, sporadic/periportal, Grade 2, no. of animals",[3],0
same,"Liver: Infiltrate, mononuclear cell, focal, Grade 1, no. of animals",[3],0
same,"Liver: Infiltrate, mononuclear cell, focal, Grade 2, no. of animals",[3],0
same,"Lung including bronchi: Alveolar macrophage aggregation, focal, Grade 1, no. of animals",[3],0
same,"Lung including bronchi: Infiltrate, mononuclear cell, alveolar, focal, Grade 1, no. of animals",[3],0
same,"Pituitary gland: Cyst, pars nervosa, Presence, no. of animals",[3],0
same,"Prostate: Infiltrate, inflammatory cell, interstitium, Grade 1, no. of animals",[3],0
same,"Salivary gland (parotid): Focus, hypertrophic, basophilic, focal, Grade 1, no. of animals",[3],0
same,"Spleen: Pigmentation, Grade 1, no. of animals",[3],0
same,"Submandibular lymph node: Increased, plasma cell, Grade 2, no. of animals",[3],0
same,"Thyroid gland: Ectopic thymus, Presence, no. of animals",[3],0
same,"Thyroid gland: Ultimobranchial cyst, Presence, no. of animals",[3],0
same,"Adrenal gland: Vacuolation, cortical, diffuse, Grade 1, no. of animals",[4],0
same,"Adrenal gland: Vacuolation, cortical, diffuse, Grade 2, no. of animals",[4],0
same,"Epididymis: Infiltrate, inflammatory cell, interstitum, Grade 1, no. of animals",[4],0
same,"Eye: Dysplasia, retina, focal, Grade 1, no. of animals",[4],1
same,"Harderian gland: Infiltrate, inflammatory cell, focal, Grade 1, no. of animals",[4],0
same,"Kidney: Basophilia, tubule, cortex, Grade 1, no. of animals",[4],1
same,"Kidney: Cast, hyaline, cortex, Grade 1, no. of animals",[4],0
same,"Kidney: Hydronephrosis, unilateral, Grade 3, no. of animals",[4],1
same,"Kidney: Infiltrate, inflammatory cell, interstitium, Grade 1, no. of animals",[4],4
same,"Kidney: Infiltrate, inflammatory cell, interstitium, Grade 2, no. of animals",[4],0
same,"Kidney: Mineralization, cortex, Grade 1, no. of animals",[4],0
same,"Kidney: Mineralization, corticomedullary junction, Grade 1, no. of animals",[4],1
same,"Kidney: Mineralization, medulla, Grade 1, no. of animals",[4],0
same,"Liver: Extramedullary hematopoiesis, Grade 1, no. of animals",[4],0
same,"Liver: Fatty change, sporadic/periportal, Grade 1, no. of animals",[4],5
same,"Liver: Fatty change, sporadic/periportal, Grade 2, no. of animals",[4],1
same,"Liver: Infiltrate, mononuclear cell, focal, Grade 1, no. of animals",[4],2
same,"Liver: Infiltrate, mononuclear cell, focal, Grade 2, no. of animals",[4],2
same,"Lung including bronchi: Alveolar macrophage aggregation, focal, Grade 1, no. of animals",[4],0
same,"Lung including bronchi: Infiltrate, mononuclear cell, alveolar, focal, Grade 1, no. of animals",[4],0
same,"Pituitary gland: Cyst, pars nervosa, Presence, no. of animals",[4],0
same,"Prostate: Infiltrate, inflammatory cell, interstitium, Grade 1, no. of animals",[4],0
same,"Salivary gland (parotid): Focus, hypertrophic, basophilic, focal, Grade 1, no. of animals",[4],1
same,"Spleen: Pigmentation, Grade 1, no. of animals",[4],4
same,"Submandibular lymph node: Increased, plasma cell, Grade 2, no. of animals",[4],0
same,"Thyroid gland: Ectopic thymus, Presence, no. of animals",[4],2
same,"Thyroid gland: Ultimobranchial cyst, Presence, no. of animals",[4],4
same,"Adrenal gland: Vacuolation, cortical, diffuse, Grade 1, no. of animals",[5],0
same,"Adrenal gland: Vacuolation, cortical, diffuse, Grade 2, no. of animals",[5],0
same,"Epididymis: Infiltrate, inflammatory cell, interstitum, Grade 1, no. of animals",[5],0
same,"Eye: Dysplasia, retina, focal, Grade 1, no. of animals",[5],0
same,"Harderian gland: Infiltrate, inflammatory cell, focal, Grade 1, no. of animals",[5],0
same,"Kidney: Basophilia, tubule, cortex, Grade 1, no. of animals",[5],0
same,"Kidney: Cast, hyaline, cortex, Grade 1, no. of animals",[5],0
same,"Kidney: Hydronephrosis, unilateral, Grade 3, no. of animals",[5],0
same,"Kidney: Infiltrate, inflammatory cell, interstitium, Grade 1, no. of animals",[5],3
same,"Kidney: Infiltrate, inflammatory cell, interstitium, Grade 2, no. of animals",[5],0
same,"Kidney: Mineralization, cortex, Grade 1, no. of animals",[5],0
same,"Kidney: Mineralization, corticomedullary junction, Grade 1, no. of animals",[5],0
